Measured values taken from ChEMBL document CHEMBL2046368, “New triterpenoid saponins from cacti and anti-type I allergy activity of saponins from cactus” (Bioorg Med Chem Lett, 2012).

Assays:
RBL-2H3 [1] = assay: Anti-type1 allergic activity in rat RBL2H3 cells using p-nitrophenyl-2-acdetamido-2-deoxy-beta-D-glucopyranoside as substrate assessed as inhibition of beta-hexosaminidase release at 100 uM incubated for 10 mins prior to substrate addition measured after 60 mins by spectrophotometry; type: functional
RBL-2H3 [2] = assay: Anti-type1 allergic activity in rat RBL2H3 cells using p-nitrophenyl-2-acdetamido-2-deoxy-beta-D-glucopyranoside as substrate assessed as inhibition of beta-hexosaminidase release incubated for 10 mins prior to substrate addition measured after 60 mins by spectrophotometry; type: functional, cell-based
RBL-2H3 [3] = assay: Anti-type1 allergic activity in rat RBL2H3 cells using p-nitrophenyl-2-acdetamido-2-deoxy-beta-D-glucopyranoside as substrate assessed as inhibition of beta-hexosaminidase release at 200 uM incubated for 10 mins prior to substrate addition measured after 60 mins by spectrophotometry; type: functional

Row | SMILES | IC50 (RBL-2H3 [2]) [µM] | inhibition at 100 µM (RBL-2H3 [1]) [%] | inhibition at 200 µM (RBL-2H3 [3]) [%]
1 | COC(=O)[C@H]1O[C@@H](O[C@H]2CC[C@]3(C)[C@H]4CC=C5[C@@H]6CC(C)(C)C[C@H](O)[C@]67C[C@@H](OC7=O)[C@@]5(C)[C@]4(C)CC[C@H]3C2(C)C)[C@H](O[C@@H]2O[C@H](CO)[C@@H](O)[C@H](O)[C@H]2O[C@@H]2O[C@@H](C)[C@H](O)[C@@H](O)[C@H]2O)[C@@H](O)[C@@H]1O | > 200 | 40.3 | 
2 | C[C@@H]1O[C@@H](O[C@@H]2[C@@H](O)[C@H](O[C@H]3CC[C@]4(C)[C@H]5CC=C6[C@@H]7CC(C)(C)CC[C@]7(C(=O)O[C@@H]7O[C@H](CO)[C@@H](O)[C@H](O)[C@H]7O)CC[C@@]6(C)[C@]5(C)CC[C@H]4C3(C)C)O[C@H](C(=O)O)[C@H]2O)[C@H](O)[C@H](O)[C@H]1O | > 200 |  | 
3 | C[C@@H]1O[C@@H](O[C@H]2[C@H](O[C@H]3[C@H](O[C@H]4CC[C@]5(C)[C@H]6CC=C7[C@@H]8CC(C)(C)C[C@H](O)[C@]89C[C@@H](OC9=O)[C@@]7(C)[C@]6(C)CC[C@H]5C4(C)C)O[C@H](C(=O)O)[C@@H](O)[C@@H]3O)O[C@H](CO)[C@@H](O)[C@@H]2O)[C@H](O)[C@H](O)[C@H]1O [DUMORTIERINOSIDE A] | > 200 |  | 32.5
4 | C=C(C)[C@@H]1CC[C@]2(C(=O)O[C@@H]3O[C@H](CO)[C@@H](O)[C@H](O)[C@H]3O)CC[C@]3(C)[C@H](CC[C@@H]4[C@@]5(C)CC[C@H](O[C@@H]6O[C@H](C(=O)O)[C@@H](O)[C@H](O[C@@H]7O[C@@H](C)[C@H](O)[C@@H](O)[C@H]7O)[C@H]6O[C@@H]6O[C@@H](C)[C@H](O)[C@@H](O)[C@H]6O)C(C)(C)[C@@H]5CC[C@]43C)[C@@H]12 [ERUCASAPONIN A] | > 200 |  | 
5 | COC(=O)[C@H]1O[C@@H](O[C@H]2CC[C@]3(C)[C@H]4CC=C5[C@@H]6CC(C)(C)CC[C@]6(C=O)[C@@H](O)C[C@@]5(C)[C@]4(C)CC[C@H]3C2(C)C)[C@H](O[C@@H]2O[C@H](CO)[C@@H](O)[C@H](O)[C@H]2O)[C@@H](O[C@@H]2O[C@H](CO)[C@@H](O)[C@H](O)[C@H]2O)[C@@H]1O [GUMMOSOSIDE A METHYL ESTER] | 99.5 |  | 
6 | CC1(C)CC[C@]2(C=O)[C@@H](O)C[C@]3(C)C(=CC[C@@H]4[C@@]5(C)CC[C@H](O[C@@H]6O[C@H](C(=O)O)[C@@H](O)[C@H](O[C@@H]7O[C@H](CO)[C@@H](O)[C@H](O)[C@H]7O)[C@H]6O[C@@H]6O[C@H](CO)[C@@H](O)[C@H](O)[C@H]6O)C(C)(C)[C@@H]5CC[C@]43C)[C@@H]2C1 [GUMMOSOSIDE A] | > 200 |  | 
7 | C[C@@H]1O[C@@H](O[C@@H]2[C@@H](O)[C@@H](O)[C@H](O[C@H]3[C@H](O[C@H]4CC[C@]5(C)[C@H]6CC[C@@H]7[C@H]8[C@H](C(C)(C)O)[C@@H]9C[C@@]8(CC[C@@]7(C)[C@]6(C)CC[C@H]5C4(C)C)C(=O)O9)O[C@H](C(=O)O)[C@@H](O)[C@@H]3O)O[C@H]2C)[C@H](O)[C@H](O)[C@H]1O [STELLATOSIDE A] | > 200 |  | 
8 | CC(C)(O)[C@H]1[C@@H]2[C@H]3CC[C@@H]4[C@@]5(C)CC[C@H](O[C@@H]6O[C@H](C(=O)O)[C@@H](O)[C@H](O)[C@H]6O[C@@H]6O[C@H](CO)[C@@H](O)[C@H](O)[C@H]6O[C@@H]6OC[C@@H](O)[C@H](O)[C@H]6O)C(C)(C)[C@@H]5CC[C@@]4(C)[C@]3(C)CC[C@@]23C[C@@H]1OC3=O [STELLATOSIDE B] | > 200 |  | 
9 | C[C@@H]1O[C@@H](O[C@H]2[C@H](O[C@H]3CC[C@]4(C)[C@H]5CC[C@@H]6[C@H]7[C@H](C(C)(C)O)[C@@H]8C[C@@]7(CC[C@@]6(C)[C@]5(C)CC[C@H]4C3(C)C)C(=O)O8)O[C@H](C(=O)O)[C@@H](O)[C@@H]2O[C@@H]2O[C@@H](C)[C@H](O)[C@@H](O)[C@H]2O)[C@H](O)[C@H](O)[C@H]1O [STELLATOSIDE C] | > 200 |  | 
10 | C=C(C)[C@H]1[C@@H]2[C@H]3CC[C@@H]4[C@@]5(C)CC[C@H](O[C@@H]6O[C@H](C(=O)O)[C@@H](O)[C@H](O[C@@H]7O[C@@H](C)[C@H](O)[C@@H](O)[C@H]7O)[C@H]6O[C@@H]6O[C@@H](C)[C@H](O)[C@@H](O)[C@H]6O)C(C)(C)[C@@H]5CC[C@@]4(C)[C@]3(C)CC[C@@]23C[C@@H]1OC3=O [THURBEROSIDE A] | 167 |  | 

Second part, led by results:

Row | IC50 (RBL-2H3 [2]) [µM] | SMILES | inhibition at 100 µM (RBL-2H3 [1]) [%] | inhibition at 200 µM (RBL-2H3 [3]) [%]
11 | > 200 | C[C@@H]1O[C@@H](O[C@H]2[C@H](O[C@H]3[C@H](O[C@H]4CC[C@]5(C)[C@H]6CC=C7[C@@H]8C[C@@](C)(CO)[C@@H](O)C[C@]89C[C@@H](OC9=O)[C@@]7(C)[C@]6(C)CC[C@H]5C4(C)C)O[C@H](C(=O)O)[C@@H](O)[C@@H]3O)O[C@H](CO)[C@@H](O)[C@@H]2O)[C@H](O)[C@H](O)[C@H]1O [BRIDGESIDE A1] |  | 
12 | > 200 | CC(=O)OC[C@]1(C)C[C@H]2C3=CC[C@@H]4[C@@]5(C)CC[C@H](O[C@@H]6O[C@H](C(=O)O)[C@@H](O)[C@H](O)[C@H]6O[C@@H]6O[C@H](CO)[C@@H](O)[C@H](O)[C@H]6O[C@@H]6OC[C@@H](O)[C@H](O)[C@H]6O)C(C)(C)[C@@H]5CC[C@@]4(C)[C@]3(C)[C@H]3C[C@]2(C[C@@H]1O)C(=O)O3 [BRIDGESIDE D1] |  | 
13 | > 200 | CC(=O)OC[C@]1(C)C[C@H]2C3=CC[C@@H]4[C@@]5(C)CC[C@H](O[C@@H]6O[C@H](C(=O)O)[C@@H](O)[C@H](O)[C@H]6O[C@@H]6O[C@H](CO)[C@@H](O)[C@H](O)[C@H]6O[C@@H]6O[C@@H](C)[C@H](O)[C@@H](O)[C@H]6O)C(C)(C)[C@@H]5CC[C@@]4(C)[C@]3(C)[C@H]3C[C@]2(C[C@@H]1O)C(=O)O3 [BRIDGESIDE D2] |  | 
14 | > 200 | C[C@H]1C[C@]23C(=O)O[C@@]14C(=CC[C@@H]1[C@@]5(C)CC[C@H](O[C@@H]6O[C@H](C(=O)O)[C@@H](O)[C@H](O[C@@H]7OC[C@@H](O)[C@H](O)[C@H]7O)[C@H]6O[C@@H]6O[C@H](CO)[C@@H](O)[C@H](O)[C@H]6O)C(C)(C)[C@@H]5CC[C@]14C)[C@@H]2CC(C)(C)C[C@@H]3O[C@@H]1O[C@H](C(=O)O)[C@@H](O)[C@H](O)[C@H]1O [PACHANOSIDE D1] |  | 
15 | > 200 | CC(=O)O[C@H]1CC(C)(C)C[C@H]2C3=CC[C@@H]4[C@@]5(C)CC[C@H](O[C@@H]6O[C@H](C(=O)O)[C@@H](O)[C@H](O[C@@H]7OC[C@@H](O)[C@H](O)[C@H]7O)[C@H]6O[C@@H]6O[C@H](CO)[C@@H](O)[C@H](O)[C@H]6O)C(C)(C)[C@@H]5CC[C@@]4(C)[C@]34OC(=O)[C@]12C[C@@H]4C [PACHANOSIDE I1] |  | 
